Columns and labels:
HCT-116 = system: HCT-116; parameters: method as in doi:10.1080/00397911.2021.1884262; details: HCT-116 colorectal cancer cells; cited from earlier work
HT-29 = system: HT-29; parameters: method as in doi:10.1080/00397911.2021.1884262; details: HT-29 colorectal cancer cells; cited from earlier work
Lovo = system: Lovo; parameters: method as in doi:10.1080/00397911.2021.1884262; details: Lovo colorectal cancer cells; cited from earlier work
tubulin = assay: In vitro tubulin polymerization inhibition assay; assay type: biochemical; details: 4 mg/mL tubulin, 37°C, absorbance at 340 nm
Description: 4.2.2. In Vitro Tubulin Polymerization Inhibition Assay.
2p, and the reference drug CD -4) with the microtubule system. Specifically, the in vitro inhibition of tubulin polymerization was evaluated for these compounds. The standard tubulin polymerization reaction was carried out, containing 100 μL of 4 mg/mL tubulin in a buffer solution of 80 mM PIPES (pH 6.9), 0.5 mM EGTA, 2 mM MgCl2, and 1 mM GTP. Polymerization was initiated by incubating the reaction […]
Under these conditions, polymerization typically reaches a maximum absorbance of […]
growth, and steady state. In this experimental set up, an absorbance of 0.1 at 340 nm corresponds to approximately 1 mg/mL of polymerized tubulin, meaning that around […]
40% of the tubulin is polymerized, allowing for the detection of both enhancers and inhibitors of polymerization. The inhibitory effect of each compound on tubulin polymerization was quantified by determining the IC50 values, which were reported as the mean ± standard deviation from three independent experiments. […]

HS 578T = assay: NCI-60 anticancer screen (SRB; single dose and five doses); details: Homo sapiens
T-47D = assay: as above; details: Homo sapiens, T47D
BT-549 = assay: as above; details: Homo sapiens
HT29 = assay: as above; details: Homo sapiens
OVCAR-4 = assay: as above; details: Homo sapiens
786-0 = assay: as above; details: Homo sapiens
UACC-62 = assay: as above; details: Homo sapiens
HCC-2998 = assay: as above
DU-145 = assay: as above; details: Homo sapiens
CAKI-1 = assay: as above; details: Homo sapiens
SK-OV-3 = assay: as above; details: Homo sapiens
TK-10 = assay: as above; details: Homo sapiens
OVCAR-5 = assay: as above; details: Homo sapiens
SNB-75 = assay: as above
IGROV1 = assay: as above; details: Homo sapiens
SK-MEL-28 = assay: as above; details: Homo sapiens
COLO 205 = assay: as above; details: Homo sapiens
UO-31 = assay: as above; details: Homo sapiens
EKVX = assay: as above; details: Homo sapiens

In the case of `Cc1nc(-c2ccc(C(F)(F)F)cc2)sc1C(=O)/C=C/c1ccc(C(=O)O)cc1` [V], the IC50 (HCT-116) is listed as 3.12 µM, the IC50 (HT-29) is listed as 7.94 µM and the IC50 (Lovo) is listed as 2.21 µM.

`COc1ccc(/C=C\c2cc(OC)c(OC)c(OC)c2)cc1O` [CA-4, Combretastatin-A4, reference compound] gave an IC50 (tubulin) of […], an IC50 (tubulin; listed as Combretastatin-A4 (CA-4)) of […] and a GI50 (HS 578T) of 0.15 µM. The CC50 (HS 578T; read-out: LC50) was over 100 µM, the IC (TGI) (HS 578T; read-out: TGI) was 0.22 µM and the GI50 (T-47D) was 48 µM. For the same molecule, the CC50 (T-47D; read-out: LC50) was over 100 µM, the IC (TGI) (T-47D; read-out: TGI) was 2.04 µM and the GI50 (BT-549; BT-549) was 0.01 µM. For the same molecule, the IC (TGI) (BT-549; BT-549, read-out: TGI) was 8.09 µM, the GI50 (HT29; HT-29) was 0.66 µM and the CC50 (HT29; HT-29, read-out: LC50) was 38.7 µM. For the same molecule, the IC (TGI) (HT29; HT-29, read-out: TGI) was 5.51 µM, the GI50 (OVCAR-4; OVCAR-4) was 0.26 µM and the CC50 (OVCAR-4; OVCAR-4, read-out: LC50) was 20.2 µM. The IC (TGI) (OVCAR-4; OVCAR-4, read-out: TGI) was 0.16 µM, the GI50 (786-0; 786-0) was 0.02 µM and the CC50 (786-0; 786-0, read-out: LC50) was over 100 µM. The IC (TGI) (786-0; 786-0, read-out: TGI) was over 100 µM, the GI50 (UACC-62; UACC-62) was 0.01 µM and the IC (TGI) (UACC-62; UACC-62, read-out: TGI) was 80.5 µM. For the same molecule, the GI50 (HCC-2998; Homo sapiens, HCC 2998) was 0.05 µM, the CC50 (HCC-2998; Homo sapiens, HCC 2998, read-out: LC50) was 26.9 µM and the TGI (HCC-2998; five-dose, Colon Cancer HCC-2998) was 1.22 µM. For the same molecule, the GI50 (DU-145; DU-145) was 0.01 µM, the CC50 (DU-145; DU-145, read-out: LC50) was over 100 µM and the IC (TGI) (DU-145; DU-145, read-out: TGI) was 78.9 µM. It also gave a GI50 (CAKI-1; CAKI-1) of 0.04 µM, a CC50 (CAKI-1; CAKI-1, read-out: LC50) of 97 µM and an IC (TGI) (CAKI-1; CAKI-1, read-out: TGI) of 8.22 µM. The GI50 (SK-OV-3; SK-OV-3) was 28.4 µM, the CC50 (SK-OV-3; SK-OV-3, read-out: LC50) was 89.5 µM and the IC (TGI) (SK-OV-3; SK-OV-3, read-out: TGI) was 0.36 µM. The GI50 (TK-10; TK-10) was 0.57 µM, the CC50 (TK-10; TK-10, read-out: LC50) was over 100 µM and the IC (TGI) (TK-10; TK-10, read-out: TGI) was 11.5 µM. For the same molecule, the GI50 (OVCAR-5; OVCAR-5) was 0.18 µM, the CC50 (OVCAR-5; OVCAR-5, read-out: LC50) was over 100 µM and the IC (TGI) (OVCAR-5; OVCAR-5, read-out: TGI) was 83.2 µM. It also gave a GI50 (SNB-75; Homo sapiens, SNB-75) of 0.83 µM, a CC50 (SNB-75; Homo sapiens, SNB-75, read-out: LC50) of 82.4 µM and a TGI (SNB-75; five-dose, CNS Cancer SNB-75) of 24.72 µM. The GI50 (IGROV1; IGROV-1) was 0.06 µM, the CC50 (IGROV1; IGROV-1, read-out: LC50) was over 100 µM and the IC (TGI) (IGROV1; IGROV-1, read-out: TGI) was 63.5 µM. The GI50 (SK-MEL-28; SK-MEL-28) was 3.16 µM, the CC50 (SK-MEL-28; SK-MEL-28, read-out: LC50) was 90.8 µM and the IC (TGI) (SK-MEL-28; SK-MEL-28, read-out: TGI) was 82.4 µM. It also gave a GI50 (COLO 205; COLO 205) of 2.49 µM, a CC50 (COLO 205; COLO 205, read-out: LC50) of over 100 µM and an IC (TGI) (COLO 205; COLO 205, read-out: TGI) of 43.2 µM. The GI50 (UO-31; UO-31) was 0.19 µM, the IC (TGI) (UO-31; UO-31, read-out: TGI) was 4.16 µM and the GI50 (EKVX) was 0.36 µM. It also gave a CC50 (EKVX; read-out: LC50) of over 100 µM and an IC (TGI) (EKVX; read-out: TGI) of 82 µM.

Source: paper PMC11435058, “Synthesis of New Thiazole-Privileged Chalcones as Tubulin Polymerization Inhibitors with Potential Anticancer Activities” (Pharmaceuticals, 2024)
